Consider six compounds from patent US5182283A, “Heterocyclic compounds their preparation and use” (Novo Nordisk A/S, priority 1990, dated 1993).

Data set [1] deals with muscarinic acetylcholine receptors. Nature of the data set: inhibition of specific binding of ^3 H-Oxotremorine-M (^3 H-Oxo) in rat cortex. The arrangement: species or system male Wistar rats. Particulars: read-out: Inhibition in vitro OXO BINDING (IC50, concentration which inhibits the specific binding of ^3 H-Oxo by 50%), ^3 H-Oxotremorine 1.0 nM, 30 min at 25° C., pH 7.4, 25-75% inhibition needed for calculation. The protocol:
The pharmacological properties of the compounds of the invention can be illustrated by determining their capability to inhibit the specific binding of ^3 H-Oxotremorine-M (^3 H-Oxo).
^3 H-Oxo labels muscarinic receptor in the CNS (with a preference for agonist domaines of the receptors). Three different sites are labelled by ^3 H-Oxo. […] Using the present experimental conditions only the high and medium affinity sites are determined.
The inhibitory effects of compounds on ^3 H-Oxo binding reflects the affinity for muscarinic acetylcholine receptors.
All preparations are performed at 0°-4° C. unless otherwise indicated. Fresh cortex (0.1-1 g) from male Wistar rats (150-250 g) is homogenized for 5-10 s in 10 ml 20 mM Hepes pH: 7.4, with an Ultra-Turrax homogenizer. The homogenizer is rinsed with 10 ml of buffer and the combined suspension centrifuged for 15 min at 40,000×g. The pellet is washed three times with buffer. In each step the pellet is homogenized as before in 2×10 ml of buffer and centrifuged for 10 min at 40,000×g.
The final pellet is homogenized in 20 mM Hepes pH: 7.4 (100 ml per g of original tissue) and used for binding assay. Aliquots of 0.5 ml is added 25 μl of test solution and 25 μl of ^3 H-Oxotremorine (1.0 nM, final concentration) mixed and incubated for 30 min at 25° C. […] After incubation samples are added 5 ml of ice-cold buffer and poured directly onto Whatman GF/C glass fiber filters under suction and immediately washed 2 times with 5 ml of ice-cold buffer. The amount of radioactivity on the filters are determined by conventional liquid scintillation counting. Specific binding is total binding minus non specific binding.
Test substances are dissolved in 10 ml water (if necessary heated on a steambath for less than 5 minutes) at a concentration of 2.2 mg/ml. 25-75% inhibition of specific binding must be obtained before calculation of IC50.
[formula] where Co is specific binding in control assays and Cx is the specific binding in the test assay. (The calculations assume normal mass-action kinetics).

For data set [2] the following is noted: in vivo; cited from earlier work.
The subject of data set [3] is central and peripheral muscarinic effects. Particulars: in vivo; cited from earlier work.
The conditions of data set [4]: in vivo; cited from earlier work. The source holds these as a separate data set.
Data set [5] has as its target muscarinic receptor in the CNS. Particulars: read-out: affinity of ^3 H-Oxo site, cited from earlier work.

Counter-ions that a name gives are not always drawn. Like-named read-outs stand apart in the source and are kept apart here.

For the compound `CCCCCCOc1nccnc1[C@H]1CN2CC[C@@H]1C2` (relative stereo) [Compound 27, Endo-3-(3-hexyloxypyrazinyl)-1-azabicyclo[2.2.2]heptane hydrochlorid hemihydrate], in data set [1], the IC50 is 0.046 µM.

Consider `CCCCCCOc1nccnc1[C@@H]1CN2CC[C@@H]1C2` (relative stereo) [Compound 28, Exo-3-(3-hexyloxypyrazinyl)-1-azabicyclo[2.2.1]heptane hydrochloride], for which the IC50 in data set [1] is 0.0056 µM.

For `COC(=O)C1=CCCN(C)C1` [Arecoline, methyl 1-methyl-1,2,5,6-tetrahydropyridine-3-carboxylate], the toxicity result in data set [2] was “rather toxic”. Besides, the “separation between central and peripheral muscarinic effects” value in data set [3] is “small separation”. Further, in data set [4], the biological half life entry is on record as “very short”.

`FC(F)(F)C(F)(F)C(F)(F)C(F)(F)CCOc1nccnc1C1=CN2CCC1CC2` [Compound 24, 3-(3-(3,3,4,4,5,5,6,6,6)nonafluorohexyloxypyrazinyl)-1-azabicyclo[2.2.2]oct-2-ene hydrochloride]: in data set [1], the IC50 is 0.49 µM.

Consider `CCCCCOc1nccnc1C1CN2CCC1CC2` (stereo not shown) [Compound 25, 3-(3-Pentyloxypyrazinl)-1-azabicyclo[2.2.2]octane hydrochloride], for which, in data set [1], the IC50 is 0.006 µM.

For the compound `C[N+](C)(C)CC#CCN1CCCC1=O` [^3 H-Oxo], the Kd in data set [5] (first of three sites (high affinity)) was 0.0018 µM; in data set [5] (second of three sites (medium affinity)), 0.02 µM; in data set [5] (third of three sites, not determined under the present conditions) it was 3 µM.
